Measured values reported in patent US6362217B1, “Taxane anticancer agents” (Bristol-Myers Squibb Company, priority 2000, dated 2002).
Marks after values point to notes of the source that are not given here.

Tests used:
[1] = system: HCT-116 human colon carcinoma cells; assay: Cytotoxicity, XTT assay; format: cell-based; conditions: XTT procedure, 72 hours incubation
Protocol: (§1) Cytoxicity was assessed in HCT-116 human colon carcinoma cells by either using an XTT or MTS procedure.
Cytotoxicity was assessed in HCT-116 human colon carcinoma cells by XTT (2,3-bis(2-methoxy-4-nitro-5-sulfpphenyl)-5-[(phenylamino)carbonyl]2H-tetrazolium hydroxide) assay as reported in D. A. Scudiero, et al., “Evaluation of soluble tetrazolium/formazan assay for cell growth and drug sensitivity in culture using human and other tumor cell lines,” Cancer Res. 48:4827-4833, 1988. Cells were plated at 4000 cells/well in 96 well microtiter plates and 24 hours later drugs were added and serial diluted. The cells were incubated at 37° C. for 72 hours at which time the tetrazolium dye, XTT, was added. A dehydrogenase enzyme in live cells reduces the XTT to a form that absorbs light at 450 nm which can be quantitated spectrophotometrically. The greater the absorbance, the greater the number of live cells. The results are expressed as an IC50, which is the drug concentration required to inhibit cell proliferation (i.e., absorbance at 450 nm) to 50% of that of untreated control cells.

[2] = system: human ovarian carcinoma A2780; assay: In vivo antitumor testing, A2780 xenograft model; design: species or system nude mice
From the text: (§2) Animals. Conventional or athymic (“nude”) mice, and nude rats, were implanted subcutaneously (sc) with tumor brei or fragments. Murine tumor were implanted in conventional mice, human tumors were implanted into nude mice or rats.
(§3) Tumors. A variety of tumors have been utilized but not all of them have necessarily been used to evaluate each and every taxane. The tumors utilized most often included the murine lung carcinoma, M109, the murine mammary carcinoma, MAM 16/C, the human ovarian carcinoma. A2780, the human colon tumors, HCT-116 and HCT-116/pk.
(§4) Treatments are initiated at differing times post-implantation depending upon the desired stringency of the test system; in general, the greater the delay post-tumor implantation, the larger the tumors at the start of therapy. Typically, treatments were begun in the M109 tumor model on Day 4 post-tumor implant, Day 7 in the MAM 16/C tumor model, and when tumors were between 100 and 500 mg in size (typically Day 7 to Day 12 post-tumor implant) for each of the human tumor xenograft models (e.g., A2780, HCT-116 and HCT-116/pk). Group sizes were typically 8 per treatment and control groups in mouse experiments and 7 per treatment and control groups in rat experiments.
Treatments for taxanes administered orally (po) were done by gavage using a vehicle consisting of 10% ethanol +10% Cremophor EL+80% water. […]
(§5) Paclitaxel was administered iv on treatment schedules and doses established from experience as being optimal, or near optimal, for the particular tumor, tumor staging, and host animal under study. It was given once daily, for five consecutive daily treatments (i.e., qd×5), when evaluated in the M109 and MAM 16/C tumor models, once daily every other day for five treatments (i.e., q2d×5) when administered to mice bearing human tumors, and once daily every other or every fourth day for five or three treatments, respectively (i.e., q2d×5 or q4d×3), to rats.
(§6) Orally administered taxanes were evaluated on the same treatment schedules just described for iv administered paclitaxel, plus other treatment schedules such as daily for nine days, or every eight days for two treatments.
Antitumor activity was assessed by determining the size of tumors in all treated and control experimental animals over time. Each animal was individually identified and the growth of the tumor implanted into each animal was measured once or twice weekly using a calipers. The difference in median time for tumors in treated (T) and control (C) groups to reach a predetermined size (e.g., 500 or 1,000 milligrams) was calculated, and assessments of absolute and relative antitumor effects (e.g., between compounds) were made on the basis of the delays in time to reach predetermined tumor target sizes. […]

[3] = system: murine lung carcinoma, M109; assay: In vivo antitumor testing, sc M109 tumor model; design: species or system mice; conditions: for iv activity compared to concomitantly evaluated iv paclitaxel: scM109 tumors
From the text: as §2, §3, §4
Treatments for taxanes administered orally (po) were done by gavage using a vehicle consisting of 10% ethanol +10% Cremophor EL+80% water. The volume of liquid administered was 0.01 ml per gram of body weight for mice, and 0.005 ml per gram of body weight for rats. A typical mouse experiment would involve the evaluation of each test compound at three different dose levels, but only one to three test groups per compound were included in rat experiments. In every experiment, intravenously (iv) administered paclitaxel was included as a reference drug.
as §5, §6
Antitumor activity was assessed by determining the size of tumors in all treated and control experimental animals over time. Each animal was individually identified and the growth of the tumor implanted into each animal was measured once or twice weekly using a calipers. The difference in median time for tumors in treated (T) and control (C) groups to reach a predetermined size (e.g., 500 or 1,000 milligrams) was calculated, and assessments of absolute and relative antitumor effects (e.g., between compounds) were made on the basis of the delays in time to reach predetermined tumor target sizes. Animals with tumors of 35 mg or less at the termination of an experiment were termed “cures”. Experiments were terminated typically after a period of time had elapsed post-treatment that was at least 10 times the tumor volume doubling time (TVDT) of the median tumor growth in control animals as assessed prior to their reaching the predetermined tumor target size in each experiment. Activity in a test group was defined as having caused a delay in tumor growth (median time to reach tumor target size) relative to the concomitant control tumor growth (i.e. T-C) of 3.32 times the TVDT. Activity was expressed in log cell kill which was equal to (T-C)/(TVDT×3.32). Toxicity was determined by measuring the average body weight of all animals in an experiment prior to, and soon after, any treatments in the experiment. […]

[4] = system: HCT-116 human colon carcinoma cells; assay: Cytotoxicity, MTS assay; format: cell-based; conditions: MTS procedure, 72 hours incubation
Protocol: as §1
Cytoxicity was assessed in HCT-116 human colon carcinoma cells by MTS (3-(4,5-dimethylthiazol-2-yl)-5-(3-carboxymethoxyphenyl)-2-(4-sulphenyl)-2H-tetrazolium, inner salt) assay as reported in T. L. Riss, et. al., “Comparison of MTT, XTT, and a novel tetrazolium compound MTS for in vitro proliferation and chemosensitivity assays.” Mol. Biol. Cell 3 (Suppl.):184a, 1992. Cells were plated at 4,000 cell/well in 96 well microtiter plates and 24 hours later drugs were added and serial diluted. The cells were incubated at 37° form 72 hours at which time the tetrazolium dye, MTS at 333 μg/ml (final concentration), in combination with the electron coupling agent phenazine methosulfate at 25 μM (final concentration) was added. A dehydrogenase enzyme in live cells reduces the MTS to a form that absorbs light at […] which can be quantitated spectrophotometrically. The greater the absorbance the greater the number of live cells. The results are expressed as an IC50, which is the drug concentration required to inhibit cell proliferation (i.e. absorbance at 450 nm) to 50% of that of untreated control cells. The IC50 values for compounds evaluated in this assay are evaluated in Table I.

[5] = human or animal models, prior art; cited from earlier work

## CC(=O)OC12COC1CCC1(C)C(=O)C(OC(=O)COc3ccccc3)C3=C(C)C(OC(=O)C(O)C(NC(=O)c4ccccc4)c4ccccc4)CC(O)(C(OC(=O)c4ccccc4)C12)C3(C)C (stereo not drawn) [Ie, 10-Phenoxyacetyl-7-deoxy paclitaxel]
[1]
  IC50: 8.09 nM

## CC(=O)OC12COC1CCC1(C)C(=O)C(OC(=O)N3CCOCC3)C3=C(C)C(OC(=O)C(O)C(NC(=O)c4ccccc4)c4ccccc4)CC(O)(C(OC(=O)c4ccccc4)C12)C3(C)C (stereo not drawn) [Ic, 10-Morpholinoyl-7-deoxy paclitaxel]
[1]
  IC50: 1.49 nM

## CCCCCCCC(=O)OC1C(=O)C2(C)CCC3OCC3(OC(C)=O)C2C(OC(=O)c2ccccc2)C2(O)CC(OC(=O)C(O)C(NC(=O)c3ccccc3)c3ccccc3)C(C)=C1C2(C)C (stereo not drawn) [Id, 10-Octanoyl-7-deoxy paclitaxel]
[1]
  IC50: 98.2 nM

## 10-(2-amino)benzoyl-7-deoxy paclitaxel [Ih]
[1]
  IC50: 102 nM

## 3′N-(2-furoyl)-7-deoxy paclitaxel [Ib]
[2]; oral, A2780 model
  oral activity compared to optimal iv paclitaxel: equallyactive if not better
[2]; po, 85 mg/kg per administration, A2780
  PO Activity in LCK: >7 LCK
[2]; po, 85 mg/kg per administration, A2780, cure = tumor of 35 mg or less at termination
  Cures (mice cured / tested): (1/8)**
[3]; iv, 20 mg/kg per injection, M109
  IV Activity in LCK: 0.7 LCK
[3]; iv
  iv activity compared to concomitantly evaluated iv paclitaxel: equiactive to paclitaxel
[3]; oral, M109 model
  oral activity: active orally
[3]; po, 40 mg/kg per administration, M109
  PO Activity in LCK: 0.7 LCK
[4]
  IC50: 0.85 nM

## CC(=O)OC12COC1CCC1(C)C(=O)C(OC(=O)C=Cc3ccccc3)C3=C(C)C(OC(=O)C(O)C(NC(=O)c4ccccc4)c4ccccc4)CC(O)(C(OC(=O)c4ccccc4)C12)C3(C)C (stereo not drawn) [Ig, 10-Cinnamoyl-7-deoxy paclitaxel]
[1]
  IC50: 28.4 nM

## CC(=O)O[C@@]12CO[C@@H]1C[C@H](O)[C@@]1(C)C(=O)[C@H](O)C3=C(C)[C@@H](OC(=O)[C@H](O)[C@@H](NC(=O)OC(C)(C)C)c4ccccc4)C[C@@](O)([C@@H](OC(=O)c4ccccc4)[C@H]21)C3(C)C [TAXOTERE®, docetaxel]
[5]
  oral activity: no oral activity

## CC(=O)O[C@H]1C(=O)[C@@]2(C)[C@H]([C@H](OC(=O)c3ccccc3)[C@]3(O)C[C@H](OC(=O)[C@H](O)[C@@H](NC(=O)c4ccccc4)c4ccccc4)C(C)=C1C3(C)C)[C@]1(OC(C)=O)CO[C@@H]1C[C@@H]2O [Paclitaxel, paclitaxel, reference compound]
[5]
  oral activity: no oral activity
[2]; iv, optimal dose and schedule (q2d×5), A2780, concomitantly evaluated
  Optimal Activity of iv Paclitaxel: 5.9 LCK
[3]; iv, optimal dose and schedule (qd×5), M109, concomitantly evaluated
  Optimal Activity of iv Paclitaxel: 0.7 LCK

## 7-deoxy-3′-(4-hydroxyphenyl)-3′N-t-butoxycarbonyl paclitaxel [Compound Ia]
[3]; iv, 13 mg/kg per injection, M109, log cell kill = (T-C)/(TVDT×3.32)
  IV Activity in LCK: 1.4 LCK
[3]; iv
  iv activity compared to concomitantly evaluated iv paclitaxel: surprising activity
[4]
  IC50: 4.3 nM

## CC(=O)OC12COC1CCC1(C)C(=O)C(OC(=O)c3ccccc3[N+](=O)[O-])C3=C(C)C(OC(=O)C(O)C(NC(=O)c4ccccc4)c4ccccc4)CC(O)(C(OC(=O)c4ccccc4)C12)C3(C)C (stereo not drawn) [If, 10-(2-Nitro)benzoyl-7-deoxy paclitaxel]
[1]
  IC50: 13.3 nM
